Measured values: patent US20230303599A1, “PRODRUGS OF PHOSPHONAMIDE NUCLEOTIDE ANALOGUES AND THEIR PHARMACEUTICAL USE” (priority 2020, published 2023)
≈ marks a conversion by molar mass, not a printed value.

Key:
[1] = Cytotoxicity assay in MT-4 cells; type: cell-based; conditions: human, uninfected MT-4 cells, average of at least two independent experiments, read-out: MT4 CC50
Method: Compounds were tested in a high-throughput 384-well assay format for their ability to inhibit the replication of HIV-1 (IIIB) in MT-4 cells. Compounds were serially diluted (1:3) in DMSO on 384-well polypropylene plates and further diluted 200-fold into complete RPMI media (10% FBS, 1% P/S) using the Biotek Micro Flow and Labcyte ECHO acoustic dispenser. Each plate contained up to 8 test compounds, with negative (no drug) and positive (5 μM AZT) controls. MT-4 cells were pre-treated with 10 μL of either RPMI (mock-infected) or a fresh 1:250 dilution of HIV-1 IIIB concentrated virus stock. Infected and uninfected MT-4 cells were further diluted in complete RPMI media and added to each plate using a Micro Flow dispenser. After 5 days incubation in a humidified and temperature-controlled incubator (37° C.), Cell Titer Glo (Promega) was added to the assay plates and chemiluminescence read using an Envision plate-reader. EC50 values were defined as the compound concentration that causes a 50% decrease in luminescence signal and were calculated using a sigmoidal dose-response model to generate curve fits and are shown in Table 1.
Example 105: Cytotoxicity Assay in MT-4 Cells
Assays were performed as described in Example 104 except uninfected MT-4 cells were added to each well containing test compound. In addition, 10 μM puromycin was added to the last column of each assay plate to assess a base level of cytotoxicity.

HBV = assay: Antiviral (HBV) assay in primary human hepatocytes (PHHs); type: cell-based; conditions: Hepatitis B virus, Hepatocyte, 120 h; HBV (GTD) infected PHH, 5 days, HBV DNA in supernatant; average of at least two independent experiments
Method: Example 106: Antiviral (HBV) Assay in Primary Human Hepatocytes (PHHs)
Cryopreserved PHH were thawed, recovered by centrifugation at 100 g in cryopreserved hepatocyte recovery medium (Thermo Fisher Scientific; CM7500), and plated on collagen matrix (Life Technologies; Catalog Number: R-011-K) coated T225 flasks (Corning CellBIND, Catalog Number: 3293) at a density of 25E6 live cells in 60 mls media. Cells were plated in William's E medium (Thermo Fisher Scientific; A1217601) supplemented with 3.6% hepatocyte thawing and plating supplement (Thermo Fisher Scientific, A15563), 5% fetal bovine serum (Thermo Fisher Scientific; 16000-036), 1 μM dexamethasone (Thermo Fisher Scientific, A15563), and 0.2% Torpedo antibiotic mix (Bioreclamation; Z990008). The plating medium was removed after 14 hours and the cells were subsequently cultured in maintenance medium: William's E medium supplemented with 4% hepatocyte maintenance supplement (Thermo Fisher Scientific; AI15564), 2% fetal bovine serum, 0.1μ M dexamethasone, 1.5% DMSO (Sigma-Aldrich, St. Louis, MO; D8418), and 0.2% Torpedo antibiotic mix. Approximately 24 hours after plating, PHH were infected with HepAD38-derived GTD virus at 500 viral genome equivalents per cell in PHH maintenance medium supplemented with 4% PEG 8000 (Promega, Madison, WI; V3011). Infections were allowed to proceed for 24 hours before removing the remaining extracellular virions by washing with maintenance medium three times. After allowing viral infection to take place for 3 days, the infected cells were harvested from the flasks by trypsinization (0.25X in PBS without Ca/Mg, 25 minutes) following a 4 minute 0.5X Versene (Life Technologies Catalog Number: 15040-066) treatment and two PBS washes. Trypsinized cells were inactivated in 10% FBS containing maintenance medium, centrifuged 6 minutes at 50 g, resuspended in hepatocyte maintenance medium, filtered through a 40 uM cell strainer, and adjusted to a density of 0.25E6 cells/ml. Infected cells were seeded on 384 well collagen coated plates (Greiner, Austria) at a density of 20,000 cells/well containing serially diluted compounds of the present disclosure or DMSO (0.5%) in a final volume of 80 μl. The assay plates were incubated for a period of 5 days and the antiviral activity of the test compounds were assayed by detecting the presence of HBV DNA in the culture supernatant using the QuantiGene™ 2.0 nucleic acid quantification kit (Affymetrix, Santa Clara, CA).

[2] = Cytotoxicity assay in primary human hepatocytes (PHHs); type: cell-based; conditions: HBV-infected primary human hepatocytes, HBV-infected PHH, Cell Titer Glo, average of at least two independent experiments
Method: Example 107: Cytotoxicity Assay in Primary Human Hepatocytes (PHHs)
The HBV-infected primary human hepatocytes are seeded (20K cells/well in 80 uL of Media) in 384well collagen coated plates pre-spotted with compounds. After 5 days, 40 ul of cell supernatant is removed to quantify HBV DNA levels as described in Example 106. Then, 40 ul Cell Titer Glo Reagent (Promega Catalog Number: G7572) is added to the remaining cells and luminescence is measured on the EnVision microplate reader.

[3] = Kinetic solubility analysis; type: physicochemical; conditions: 1× PBS, 24.2 °C, aqueous buffer, kinetic from dmso stock; pH 7.4 PBS, 1% DMSO, 24-hour incubation at ambient temperature
Outline: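 Compounds from 10 mM DMSO stocks were incubated in 0.1 N HCl or 1× PBS pH 7.4 (1.0% DMSO, 100 μM maximum theoretical) for 24 h at 24.2-27.5 °C, then vacuum filtered. Filtrates were quantified in μM by chemiluminescent nitrogen detection against a calibration curve, corrected for background nitrogen; values for adjacent ring-nitrogen compounds were raised ~25%.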

Structure (SMILES) | CC50 at 5 days [1] | EC50 (HBV) | CC50 at 5 days [2] | solubility kinetic at 24 h [3]
C[C@H](Cn1cnc2c(N)ncnc21)OCP(=O)(NC(C)(C)C(=O)O[C@H](C)C1CCCCC1)NC(C)(C)C(=O)O[C@H](C)C1CCCCC1 [Example 55, Bis((R)-1-cyclohexylethyl) 2,2′-((((((R)-1-(6-amino-9H-purin-9-yl)propan-2-yl)oxy)methyl)phosphoryl)bis(azanediyl))bis(2-methylpropanoate)] | 9420 nM | 6.26 nM | > 100 nM | < 1 µg/mL
C[C@H](Cn1cnc2c(N)ncnc21)OCP(=O)(NC(C)(C)C(=O)OCC1CCC2(CCC2)CC1)NC(C)(C)C(=O)OCC1CCC2(CCC2)CC1 (stereo partly drawn) [Example 53, Bis(spiro[3.5]nonan-7-ylmethyl) 2,2′-(((((1-(6-amino-9H-purin-9-yl)propan-2-yl)oxy)methyl)phosphoryl)bis(azanediyl))(R)-bis(2-methylpropanoate)] | 7550 nM | 8.38 nM | > 100 nM | < 1 µg/mL
CCC1(CC)CC(OC(=O)C(C)(C)NP(=O)(CO[C@H](C)Cn2cnc3c(N)ncnc32)NC(C)(C)C(=O)OC2CC(CC)(CC)C2)C1 [Example 49, Bis(3,3-diethylcyclobutyl) 2,2′-(((((1-(6-amino-9H-purin-9-yl)propan-2-yl)oxy)methyl)phosphoryl)bis(azanediyl))(R)-bis(2-methylpropanoate)] | 5220 nM | 5.45 nM | > 100 nM | 4 µg/mL (≈ 5.9 µM)
C[C@H](Cn1cnc2c(N)ncnc21)OCP(=O)(NC(C)(C)C(=O)OC[C@H]1CC[C@H](C)CC1)NC(C)(C)C(=O)OC[C@H]1CC[C@H](C)CC1 [Example 91, Bis((trans-4-methylcyclohexyl)methyl) 2,2′-((((((R)-1-(6-amino-9H-purin-9-yl)propan-2-yl)oxy)methyl)phosphoryl)bis(azanediyl))bis(2-methylpropanoate)] | 4920 nM | 3.76 nM | > 100 nM | 
C[C@H](Cn1cnc2c(N)ncnc21)OCP(=O)(NC(C)(C)C(=O)OCC1CC2(C1)CC1(CCC1)C2)NC(C)(C)C(=O)OCC1CC2(C1)CC1(CCC1)C2 [Example 57, Bis(dispiro[3.1.3^6.1^4]decan-2-ylmethyl) 2,2′-(((((1-(6-amino-9H-purin-9-yl)propan-2-yl)oxy)methyl)phosphoryl)bis(azanediyl))(R)-bis(2-methylpropanoate)] | 6620 nM | 4.71 nM | > 100 nM | < 1 µg/mL
C[C@H](Cn1cnc2c(N)ncnc21)OCP(=O)(NC(C)(C)C(=O)OCC1CC2(CCC2)C1)NC(C)(C)C(=O)OCC1CC2(CCC2)C1 (stereo partly drawn) [Example 50, Bis(spiro[3.3]heptan-2-ylmethyl) 2,2′-(((((1-(6-amino-9H-purin-9-yl)propan-2-yl)oxy)methyl)phosphoryl)bis(azanediyl))(R)-bis(2-methylpropanoate)] | 8060 nM | 3.1 nM | > 100 nM | < 1 µg/mL
CCCCCCCCOC(=O)C(C)(C)NP(=O)(CO[C@H](C)Cn1cnc2c(N)ncnc21)NC(C)(C)C(=O)OCCCCCCCC [Example 39, Dioctyl 2,2′-(((((1-(6-amino-9H-purin-9-yl)propan-2-yl)oxy)methyl)phosphoryl)bis(azanediyl))(R)-bis(2-methylpropanoate)] | 7270 nM | 4.5 nM | > 100 nM | 
CCC[C@H]1CC[C@H](COC(=O)C(C)(C)NP(=O)(CO[C@H](C)Cn2cnc3c(N)ncnc32)NC(C)(C)C(=O)OC[C@H]2CC[C@H](CCC)CC2)CC1 [Example 92] | 7990 nM | 4.56 nM | > 100 nM | < 1 µg/mL
C[C@H](Cn1cnc2c(N)ncnc21)OCP(=O)(NC(C)(C)C(=O)OCC1CCC(F)(F)CC1)NC(C)(C)C(=O)OCC1CCC(F)(F)CC1 [Example 88, Bis((4,4-difluorocyclohexyl)methyl) 2,2′-(((((1-(6-amino-9H-purin-9-yl)propan-2-yl)oxy)methyl)phosphoryl)bis(azanediyl))(R)-bis(2-methylpropanoate)] | 7290 nM | 2.5 nM | > 100 nM | 69 µg/mL (≈ 95.6 µM)
CCCCCCOC(=O)C(C)(C)NP(=O)(CO[C@H](C)Cn1cnc2c(=N)n(Cc3oc(=O)oc3C)cnc21)NC(C)(C)C(=O)OCCCCCC [Example 83, Dihexyl 2,2′-(((((1-(6-imino-1-((5-methyl-2-oxo-1,3-dioxol-4-yl)methyl)-1,6-dihydro-9H-purin-9-yl)propan-2-yl)oxy)methyl)phosphoryl)bis(azanediyl))(R)-bis(2-methylpropanoate)] | 6600 nM | 2.14 nM | > 100 nM | 33 µg/mL (≈ 44.7 µM)
C[C@H](Cn1cnc2c(N)ncnc21)OCP(=O)(NC(C)(C)C(=O)OC1CC(C2CCC2)C1)NC(C)(C)C(=O)OC1CC(C2CCC2)C1 (stereo partly drawn) [Example 90, Di([1,1′-bi(cyclobutan)]-3-yl) 2,2′-(((((1-(6-amino-9H-purin-9-yl)propan-2-yl)oxy)methyl)phosphoryl)bis(azanediyl))(R)-bis(2-methylpropanoate)] | 5510 nM | 2.95 nM | > 100 nM | 7 µg/mL (≈ 10.4 µM)
C[C@H](Cn1cnc2c(N)ncnc21)OCP(=O)(NC(C)(C)C(=O)OCC12CCC(CC1)CC2)NC(C)(C)C(=O)OCC12CCC(CC1)CC2 [Example 48, Bis(bicyclo[2.2.2]octan-1-ylmethyl) 2,2′-(((((1-(6-amino-9H-purin-9-yl)propan-2-yl)oxy)methyl)phosphoryl)bis(azanediyl))(R)-bis(2-methylpropanoate)] | 3340 nM | 4.63 nM | > 100 nM | < 1 µg/mL
CCCCCCOC(=O)C(C)(C)NP(=O)(CO[C@H](C)Cn1cnc2c(N)ncnc21)NC(C)(C)C(=O)OCCCCCC [Example 1, Dihexyl 2,2′-(((((1-(6-amino-9H-purin-9-yl)propan-2-yl)oxy)methyl)phosphoryl)bis(azanediyl))(R)-bis(2-methylpropanoate)] | 4990 nM | 1.96 nM | > 100 nM | 33 µg/mL (≈ 52.7 µM)
C[C@H](Cn1cnc2c(N)ncnc21)OCP(=O)(NC(C)(C)C(=O)OCC1CCCCCC1)NC(C)(C)C(=O)OCC1CCCCCC1 [Example 89, Bis(cycloheptylmethyl) 2,2′-(((((1-(6-amino-9H-purin-9-yl)propan-2-yl)oxy)methyl)phosphoryl)bis(azanediyl))(R)-bis(2-methylpropanoate)] | 5100 nM | 2.42 nM | > 100 nM | 
